Patent US20060286608A1, “Method for screening transglutaminase 2 inhibitor or activator” (priority 2005, published 2006)
Where two headings read alike, the source gives them in different places. Residues, ends and D or L forms follow the SMILES beside them. *: point of attachment. Cbz = O=C(OCc1ccccc1)*; OtBu = CC(C)(C)O*

Columns and labels:
TGase 2 [1] = target: T1, TGase 2 (Homo sapiens, UniProt P21980); experiment: Effect of TGase inhibitors on reduced I-κBα in SH-SY5Y/TG cells; type: cell-based; conditions: SH-SY5Y/TG cells incubated for 30 min with TGase inhibitor, Western blotting
T1 construct: carry a pcDNA5/FRT vector containing a full-length human TGase 2 gene; expressed in transfected cells; host or cells: human neuroblastoma SH-SY5Y, Flp-In system, pcDNA5/FRT vector
T1 sequence (P21980 1-687): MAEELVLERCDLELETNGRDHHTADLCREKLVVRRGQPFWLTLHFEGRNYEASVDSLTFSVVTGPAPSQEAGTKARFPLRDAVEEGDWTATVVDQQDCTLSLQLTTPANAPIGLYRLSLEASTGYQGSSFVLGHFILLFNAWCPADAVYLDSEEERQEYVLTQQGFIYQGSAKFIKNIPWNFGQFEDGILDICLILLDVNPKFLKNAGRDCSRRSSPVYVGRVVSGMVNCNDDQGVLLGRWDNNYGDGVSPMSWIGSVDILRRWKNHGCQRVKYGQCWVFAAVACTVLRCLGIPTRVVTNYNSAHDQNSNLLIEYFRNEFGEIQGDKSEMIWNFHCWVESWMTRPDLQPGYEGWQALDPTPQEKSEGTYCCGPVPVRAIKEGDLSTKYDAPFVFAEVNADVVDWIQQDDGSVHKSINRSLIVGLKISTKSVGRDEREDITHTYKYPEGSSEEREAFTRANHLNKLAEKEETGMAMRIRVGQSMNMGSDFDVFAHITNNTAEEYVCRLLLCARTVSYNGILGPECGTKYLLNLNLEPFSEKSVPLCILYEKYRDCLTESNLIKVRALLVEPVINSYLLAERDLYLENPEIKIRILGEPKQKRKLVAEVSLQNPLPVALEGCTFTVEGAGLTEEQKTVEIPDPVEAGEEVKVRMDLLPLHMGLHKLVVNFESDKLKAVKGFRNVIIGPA
Source text: Cystamine is known to inhibit TGase activity by blocking the access of a glutamine residue in substrate proteins to the TGase active site. Iodoacetamide (Sigma) is also known to inhibit TGase activity as a strong competitive irreversible inhibitor. […] E2 (DPVKG: SEQ. ID. NO. 6) and R2 (KVLDGQDP: SEQ. ID. NO. 7) were designed to contain a pro-elafin sequence and a pro-elafin/antiflamnin sequence, respectively, therein. […] In order to examine the effect of TGase inhibitors on the decrease in I-κBα level, the SH-SY5Y/TG culture was treated with different inhibitors for 30 min, followed by the separation of the cytosolic fraction using a nuclear extract kit (Sigma).
The effect of TGase 2 expression on the level of I-κBα was examined in EcR 293 and SH-SY5Y cells. To control TGase 2 expression, a tetracycline-induced expression system was applied to EcR 293 cell line (FIG. 6A). In FIG. 6A, EcR 293 cells were collected before incubation (left), after incubation in a medium containing 1 μg/ml of tetracycline for 24 hours (center), and after incubation in a medium containing 1 μg/ml of tetracycline for 24 hours and then in a fresh medium containing no tetracycline for an additional 24 hours (right). […] To examine whether TGase 2 inhibitors can result in the same effect, SH-SY5Y/TG cells were incubated for 30 min with a TGase inhibitor, such as cystamine, idoacetamide, E2 peptide, or R2 peptide.

I-κBα = experiment: Proteasome inhibitor treatment of SH-SY5Y/TG cells, Western blotting for I-κBα and ubiquitin; conditions: SH-SY5Y/TG cells incubated for 6 hours with proteasome inhibitor; for increased ubiquitinated I-κBα: Western blotting; for level of I-κBα: cytosol
Description: The cytosolic fractions were prepared using a nuclear extract kit (Sigma). The samples were separated from 10-20% gradient SDS gels in Tricine buffer (Invitrogen) and then transferred onto a polyvinylidene difluoride membrane (Invitrogen). Western blotting was conducted as established previously. Antibodies to NF-κBp65, I-κBα, phospho-IκB-α (Ser32), I-κB kinaseβ(IKK-β), phospho-IKKα (Ser180)/IKKβ(Ser181), and NF-κB activating kinase were obtained from Cell Signaling Technologies (Beverly, Mass.). Antibodies to NIK, IKKα, and α-topoisomerase I were obtained from Santa Cruz Biotechnology (Santa Cruz, Calif.). […] The blot was then developed by ECL (enhanced chemiluminescence) (Pierce, Milwaukee, Wis.). To determine the purity of extracted cytosolic and nuclear fractions, anti-LDH and anti-α-topoisomerase were used for the cytosolic fraction and the nuclear fraction, respectively.
To examine whether TGase 2 reduces the level of I-κBα via a ubiquitin-proteasome system, SH-SY5Y/TG cells were incubated for 6 hours with proteasome inhibitors, such as MG132, lactacystin, or carbobenzoxy-L-isoleucyl-gamma-t-butyl-L-alanyl-L-leucinal (FIG. 3A). The cytosol was extracted from cells and was carried out Western blotting for I-κBα and ubiquitin. […] If NF-κB expression induced by TGase 2 depends on the IKK/ubiquitin/proteasome pathway, the level of both I-κBα and ubiquitinated I-κBα should be increased.

SH-SY5Y/TG cells [2] = tested on: SH-SY5Y/TG cells
TGase 2 [3] = experiment: TGase activity assay in LPS-activated BV-2 microglia; type: cell-based, murine; conditions: BV-2 cells treated with LPS and NMMA (0, 50, 100 μM), 24 hours
Description: (§1) The BV-2 cells were grown and maintained in DMEM (Dulvecco's modified Eagle's medium) (Invitrogen) supplemented with 10% FCS (fetal calf serum) and penicillin/streptomycin at 37° C. in a humidified incubator under 5% CO2. To activate BV-2, the cells were treated with LPS (100 μg/ml; Sigma) for 24 hours. After LPS treatment for 24 hours with or without inducible nitric-oxide synthase(iNOS) inhibitor, 0, 50, and 100 μM N^G-monomethyl-L-arginine(L-NMMA) (Sigma), proteins were extracted with radioimmunoprecipitation assay buffer (1× phosphate-buffered saline (PBS), 1% Nonidet P-40, 0.5% sodium deoxycholate and 0.1% SDS) containing protease inhibitors from BV-2 harvest, followed by analysis for TGase 2 activity.
Enzymatic activity was determined using a modified TGase assay method for measuring the incorporation of [1,4-^14C] putrescine into succinylated casein.

BV-2 microglia = experiment: Nitric oxide measurement (Griess reaction) in LPS-activated BV-2 microglia; type: cell-based, murine; conditions: BV-2 cells treated with LPS and NMMA (0, 50, 100 μM), 24 hours
Description: as §1
Accumulated nitric oxide was measured in the cell supernatant after LPS treatment for 24 hours by Griess reaction. A 200 μl aliquot of the cell supernatant in each well of a 96-well microtiter plate was mixed with 100 μl of the Griess reagent [1% sulfanilamide (Fluka), 0.1% naphthylethylenediamine dihydrochloride (Fluka), 2.5% H3PO4], and the absorbance was read at 540 nm using a plate reader.

SH-SY5Y/TG cells [4] = experiment: LDH activity in medium and caspase-9 expression in proteasome inhibitor-treated SH-SY5Y/TG cells; conditions: SH-SY5Y/TG cells incubated for 6 hours with proteasome inhibitor

Compound | cytosolic I-κBα level (TGase 2 [1]) | increased ubiquitinated I-κBα (I-κBα) | level of I-κBα (I-κBα) | also measured
KVLDGQDP (pro-elafin/antiflammin sequence) [R2 peptide] | reduce the cytosolic I-κBα level almost to the control level |  |  | 
CC(C)C[C@@H](C=O)NC(=O)[C@H](CC(C)C)NC(=O)[C@H](CC(C)C)NC(=O)OCc1ccccc1 [MG132] (Cbz-Leu-Leu-Leu-aldehyde) |  | not detected | increased | LDH activity in the medium (SH-SY5Y/TG cells [2]): not detected; caspase-9 expression by Western blotting (SH-SY5Y/TG cells [2]): not detected
CNC(=N)NCCC[C@H](N)C(=O)O [NMMA, N^G-monomethyl-L-arginine] |  |  |  | TGase activity (TGase 2 [3]): did not affect; NO secretion (BV-2 microglia): reduced NO secretion in a dose-dependent manner
DPVKG (pro-elafin sequence) [E2 peptide] | reduce the cytosolic I-κBα level almost to the control level |  |  | 
NC(=O)CI [idoacetamide, Iodoacetamide] | reduce the cytosolic I-κBα level almost to the control level |  |  | 
CC[C@H](C)[C@H](NC(=O)OCc1ccccc1)C(=O)N[C@@H](CCC(=O)OC(C)(C)C)C(=O)N[C@@H](C)C(=O)N[C@H](C=O)CC(C)C [carbobenzoxy-L-isoleucyl-gamma-t-butyl-L-alanyl-L-leucinal] (Cbz-IE(OtBu)AL-aldehyde) |  | not detected | increased | LDH activity in the medium (SH-SY5Y/TG cells [2]): not detected; caspase-9 expression by Western blotting (SH-SY5Y/TG cells [2]): not detected
NCCSSCCN [cystamine, Cystamine] | reduce the cytosolic I-κBα level almost to the control level |  |  | 
CC(=O)N[C@@H](CSC(=O)[C@]1([C@@H](O)C(C)C)NC(=O)[C@H](C)[C@@H]1O)C(=O)O [lactacystin] |  | not detected | increased | LDH activity in the medium (SH-SY5Y/TG cells [4]): not detected; caspase-9 expression by Western blotting (SH-SY5Y/TG cells [4]): not detected
